Measurements reported in US20070032464A1, “Methods of treating cancers” (priority 2004, published 2007).

Assays:
[1] = biological target: T1, liver X receptor beta (i.e., UR) (Rattus norvegicus, UniProt Q62755); test: gene transactivation (luciferase reporter) assay in human embryonic kidney 293 cells, liver X receptor beta (UR); format: cell-based; settings: 1 to 10 μM
T1 sequence (Q62755 1-446): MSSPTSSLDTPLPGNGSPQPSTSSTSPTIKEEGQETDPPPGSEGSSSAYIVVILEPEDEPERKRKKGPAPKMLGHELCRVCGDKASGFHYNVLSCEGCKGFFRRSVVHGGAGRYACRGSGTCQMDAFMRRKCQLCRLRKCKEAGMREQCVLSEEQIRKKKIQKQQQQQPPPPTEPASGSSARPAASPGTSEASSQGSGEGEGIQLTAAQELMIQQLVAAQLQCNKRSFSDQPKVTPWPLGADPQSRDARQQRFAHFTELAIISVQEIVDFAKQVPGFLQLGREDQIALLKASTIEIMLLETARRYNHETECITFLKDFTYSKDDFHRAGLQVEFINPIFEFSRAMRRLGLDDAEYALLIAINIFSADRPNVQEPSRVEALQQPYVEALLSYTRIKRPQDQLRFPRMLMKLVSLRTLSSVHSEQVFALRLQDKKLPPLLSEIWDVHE
T1 sequence (P19793 1-462 partner): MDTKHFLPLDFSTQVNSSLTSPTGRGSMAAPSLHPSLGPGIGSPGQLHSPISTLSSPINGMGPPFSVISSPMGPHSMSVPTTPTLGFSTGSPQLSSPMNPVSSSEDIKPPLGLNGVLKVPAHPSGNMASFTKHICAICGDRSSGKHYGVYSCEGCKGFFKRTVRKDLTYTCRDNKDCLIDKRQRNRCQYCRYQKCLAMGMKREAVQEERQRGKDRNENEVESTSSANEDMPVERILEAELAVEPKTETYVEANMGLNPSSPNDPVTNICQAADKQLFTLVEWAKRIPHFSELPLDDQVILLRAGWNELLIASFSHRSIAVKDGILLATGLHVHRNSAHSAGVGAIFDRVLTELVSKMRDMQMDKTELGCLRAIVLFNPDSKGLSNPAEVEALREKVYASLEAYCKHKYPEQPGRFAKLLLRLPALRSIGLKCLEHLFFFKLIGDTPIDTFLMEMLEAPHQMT
Procedure: (§1) See, e.g., Song, C. et al., Steroids, 2000, 65, 423-427.
(§2) Specifically, human embryonic kidney 293 cells were seeded into a 48-well culture plate at 10^5 cells per well in a Dulbecco's modified Eagle's medium (DMEM) supplemented with 10% fetal bovine serum. After incubation for 24 hours, the cells were transfected by the calcium phosphate coprecipitation method with 250 ng of a pGL3/UREluc reporter gene that consisted of three copies of AGGTCAagccAGGTCA fused to nucleotides −56 to +109 of the human c-fos promoter in front of the firefly luciferase gene in the plasmid basic pGL3 (Promega, Madison, Wis.), 40 ng pSG5/hRXRα, 40 ng pSG5/rUR or CMX/hliver X receptorα, 10 ng pSG5/hGrip1, 0.4 ng CMV/R-luc (transfection normalization reporter, Promega) and 250 ng carrier DNA per well. […]
(§3) After incubation for another 12 to 24 hours, the cells were washed with phosphate buffer saline and then refed with DMEM supplemented with 4% delipidated fetal bovine serum. […] After incubation for another 24 to 48 hours, the cells were harvested and the luciferase activity was measured with a commercial kit (Promega Dual luciferase II) on a Monolight luminometer (Becton Dickenson, Mountain View, Calif.).

[2] = biological target: T2, liver X receptor alpha (Homo sapiens, UniProt Q13133); test: gene transactivation (luciferase reporter) assay in human embryonic kidney 293 cells, liver X receptor alpha; format: cell-based; settings: 1 to 10 μM
T2 sequence (Q13133 1-447): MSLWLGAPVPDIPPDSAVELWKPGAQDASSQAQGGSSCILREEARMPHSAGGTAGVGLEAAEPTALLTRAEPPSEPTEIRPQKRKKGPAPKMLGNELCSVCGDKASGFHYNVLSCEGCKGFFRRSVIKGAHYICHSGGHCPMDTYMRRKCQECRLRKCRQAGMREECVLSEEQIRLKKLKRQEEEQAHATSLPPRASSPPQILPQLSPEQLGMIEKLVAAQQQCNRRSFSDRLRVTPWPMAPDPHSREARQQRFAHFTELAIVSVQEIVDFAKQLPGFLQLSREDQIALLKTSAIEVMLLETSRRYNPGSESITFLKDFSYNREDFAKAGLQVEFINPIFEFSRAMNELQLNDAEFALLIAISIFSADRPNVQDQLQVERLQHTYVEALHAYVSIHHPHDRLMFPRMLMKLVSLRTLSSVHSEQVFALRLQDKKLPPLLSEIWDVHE
T2 sequence (P19793 1-462 partner): T1 sequence (P19793 1-462 partner)
Procedure: as §1, §2, §3

Structure (SMILES)	liver X receptor beta (UR) agonistic activity [1]	liver X receptor alpha agonistic activity [2]
CON(C)C(=O)CC[C@@H](C)[C@H]1CC[C@H]2[C@@H]3C[C@H](O)[C@@H]4C[C@H](O)CC[C@]4(C)[C@H]3CC[C@]12C [hypocholamide, N-methyl-N-methoxy-3α,6α-dihydroxy-5β-cholanoic acid-24-amide]	unexpectedly potent agonists	unexpectedly potent agonists
CC(CCC(O)(C(F)(F)F)C(F)(F)F)C1CCC2C3CC(O)C4CC(O)CCC4(C)C3CCC12C (stereo not drawn) [hypocholaride, 3α,6α,24-trihydroxy-5β-24,24-di(trifluoromethyl)-cholestane]	unexpectedly potent agonists	unexpectedly potent agonists
